How the values were obtained:
[1] = tested on: skin wrinkles on the face of female subjects; test: Skin wrinkle improvement by computer aided laser profilometry (Skin Visiometer, silicone replicas); type: in vivo, human; details: 9 weeks
Method: The effects of the cosmetic compositions of Example 1 and Comparative Example 1 and 2 on skin wrinkle improvement were determined by computer aided laser profilometry.
It involved sixteen female subjects of 30 years and over. The cosmetic compositions of Example 1 and Comparative Examples 1 and 2 were applied on the face (area of 2×2 cm2) of the test subjects, once a day with dose of 0.05 g for 9 weeks. Then, replicas of their skin wrinkles were prepared using white plastic silicon precision moulding compound. The changes in the skin wrinkles of the replicas were detected with Skin Visiometer (SV600 manufactured by Courage+Khazaka electronic GmbH, Germany). Three-dimensional images of the replicas were analyzed with a CCD camera. The skin wrinkle improvement effect was determined as average roughness of the wrinkles (Rz) according to the following numerical formula I:
Rz=(R1+R2+ . . . +Rn−1+Rn)/Number of wrinkles(n) (I)
Wherein, Rn is the roughness of each wrinkle and n is the number of the wrinkles.

[2] = tested on: skin of the upper outer arm of 16 human volunteers; test: Skin irritant potential, modified human 4-h patch test; type: in vivo
Method: The skin irritant potential of the cosmetic compositions of Example 1 and Comparative Example 1 and 2 were determined using a modification of the human 4-h patch test (Basketter D A, et al., Food Chem Toxicol 1997,:35: 845-852), involving application of 0.2 ml of the composition to be tested on a 25 mm plain Hill Top Chamber containing a Webril pad (Hill Top Companies, Cincinatti, Ohio, USA) to the skin of the upper outer arm of 16 human volunteers. Both upper arms of the panelist were used. Patches were applied in a balanced random order.
After 24 hours, the patches were removed and then the test areas were marked with a marking pen. After each lapse of 24, 48 and 72 hours, the test areas were observed and treatment sites were assessed for the presence of irritation using a 4 point scale (Table 2) at 24, 48 and 72 h after patch removal

[3] = emulsion (lotion) type formulation
[4] = lotion type cosmetic preparation, 0.20 wt% with 0.20 wt% retinyl palmitate
[5] = solution type formulation, 0.2 wt% with 0.2 wt% retinyl palmitate

| Structure (SMILES) | effect on retinoid wrinkle improvement [1, 3] | efficiency relative to piceatannol on wrinkle improvement ([1]; emulsion type cosmetic preparations) | effect on retinoid wrinkle improvement ([1]; solution type formulation) | effect of addition on irritancy of retinyl palmitate [2, 4] | effect of addition on irritancy of retinyl palmitate [2, 5] |
| --- | --- | --- | --- | --- | --- |
| OC[C@H]1O[C@@H](Oc2cc(O)cc(/C=C/c3ccc(O)c(O)c3)c2)[C@H](O)[C@@H](O)[C@@H]1O (relative stereo) [astringin, trans-(3,5,3′,4′-tetrahydroxystilbene)-3-O-beta-d-glucopyranoside] | enhances the effect of retinol on wrinkle improvement | seems to be m ore efficient than piceatannol | enhances the effect of retinol on wrinkle improvement | clearly reduced the irritancy of retinyl palmitate | clearly reduced the irritancy of retinyl palmitate |
| Oc1cc(O)cc(/C=C/c2ccc(O)c(O)c2)c1 [piceatannol, trans-3,4,3′,5′-tetrahydroxystilbene] | enhances the effect of retinol on wrinkle improvement | – | enhances the effect of retinol on wrinkle improvement | clearly reduced the irritancy of retinyl palmitate | clearly reduced the irritancy of retinyl palmitate |
